Reference: ChEMBL document CHEMBL5241089, “Matrix metalloproteinases inhibitors in idiopathic pulmonary fibrosis: Medicinal chemistry perspectives” (Eur J Med Chem, 2021)

What was measured:
Stromelysin-2 [1] = target: T1, Stromelysin-2 (Homo sapiens, UniProt P09238); assay: Inhibition of MMP-10 (unknown origin)
Stromelysin-2 [2] = target: T1, Stromelysin-2; assay: Inhibition of MMP10 (unknown origin) using FRET peptide

T1 sequence (P09238 whole entry): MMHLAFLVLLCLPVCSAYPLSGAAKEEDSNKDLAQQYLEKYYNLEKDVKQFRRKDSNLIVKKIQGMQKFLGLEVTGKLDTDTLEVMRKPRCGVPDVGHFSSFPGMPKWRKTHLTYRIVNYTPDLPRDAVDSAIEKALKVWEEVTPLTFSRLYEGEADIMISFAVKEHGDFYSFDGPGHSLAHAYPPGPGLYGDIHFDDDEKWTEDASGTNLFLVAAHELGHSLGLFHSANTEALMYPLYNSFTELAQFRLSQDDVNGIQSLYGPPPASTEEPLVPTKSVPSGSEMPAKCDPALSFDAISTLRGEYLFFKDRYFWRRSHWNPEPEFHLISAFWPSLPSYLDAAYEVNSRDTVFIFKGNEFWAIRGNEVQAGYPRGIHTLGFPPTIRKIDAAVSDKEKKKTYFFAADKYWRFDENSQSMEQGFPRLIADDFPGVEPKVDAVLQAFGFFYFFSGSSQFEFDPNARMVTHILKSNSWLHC

| IC50 (Stromelysin-2 [1]) | IC50 (Stromelysin-2 [2]) | SMILES |
| --- | --- | --- |
| 0.024 µM | – | CC(=O)N1c2nc(C)cc(=O)n2[C@H](c2ccc(Br)cc2)N1C(C)=O |
| – | 1.2 µM | O=C(O)CCCCCCCCOc1ccc(CC(=O)Nc2ccc3c(c2)C(=O)N(Cc2ccccc2)C3=O)cc1 |
